Test results reported in patent US6797720B2, “1,3,4-oxadiazoline derivative and an agent comprising its derivative as active ingredient” (ONO Pharmaceutical Co., Ltd., priority 1999, dated 2004).

What was measured:
Assay type in all cases: biochemical
cathepsin B = cathepsin B (Homo sapiens, UniProt P07858); experiment: Measurement of cathepsin B inhibitory activity
Protocol: (ii) Measurement of Cathepsin B Inhibitory Activity
Synthesized substrate of several concentrations (carbobenzoxy-L-arginyl-L-arginine-4-methyl-chromanyl-7-amide or carbobenzoxy-L-phenylalanyl-L-arginine-4-methyl-chromanyl-7-amide) solution (10 μL), cysteine protease inhibitor solution of several concentrations (10 μL), cathepsin B enzyme reaction buffer (mixture of 400 mmol/L in acetic acid, 4 mmol/L EDTA, 8 mmol/L DDT to adjust to pH 5.5) 70 μL and cathepsin B enzyme solution 10 μL were mixed and the increase of fluorescence intensity was measured (λex=355 nm, λem=460 nm) when reacted at 37° C.

cathepsin L = cathepsin L (Homo sapiens, UniProt P07711); experiment: Measurement of cathepsin L inhibitory activity
Protocol: (iv) Measurement of Cathepsin L Inhibitory Activity
Synthesized substrate of several concentrations (carbobenzoxy-L-phenylalanyl-L-arguine-4-methyl-chromanyl-7-amide or L-prolyl-L-phenylalanyl-L-arguinine-4-methyl-chromanyl-7-amide) solution (5 μL), cysteine protease inhibitor solution (5 μL) of several concentrations, cathepsin L enzyme reaction buffer (400 mmol/L acetic acid, 4 mmol/L EDTA, 8 mmol/L DTT were mixed to adjust to pH 5.5) 80 μL and cathepsin L enzyme solution (10 μL) were mixed and the increase of fluorescence intensity was measured (λex=355 nm, λem=460 nm) when reacted at 37° C.

cathepsin K = target: T1, cathepsin K (Homo sapiens, UniProt P43235); experiment: Measurement of cathepsin K inhibitory activity; conditions: Dixon plot, pH 5.5, 37° C.
T1 sequence (P43235 115-329): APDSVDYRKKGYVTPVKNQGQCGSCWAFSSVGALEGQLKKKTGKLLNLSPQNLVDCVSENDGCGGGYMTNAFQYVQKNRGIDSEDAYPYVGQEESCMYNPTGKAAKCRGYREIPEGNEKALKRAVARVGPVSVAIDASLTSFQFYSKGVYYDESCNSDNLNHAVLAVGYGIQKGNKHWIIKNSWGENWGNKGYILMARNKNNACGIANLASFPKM
Protocol: (i) Measurement of Cathepsin K Inhibitory Activity
Cathepsin K enzyme reaction buffer (50 mmol/L 2-(N-morpholino)ethanesulfonate, 2 mmol/L ethylenediamine tetraacetate (EDTA) and 4 mmol/L dithiothreitol (DTT) were mixed to adjust to pH 5.5) (65 μL), cysteine protease inhibitor solution (5 μL) of several concentrations, synthesized substrate (t-butyloxycarbonyl-L-alanyl-glycyl-L-prolyl-L-arginine-4-me thyl-chromanyl-7-amide) solution (20 μL) of several concentrations and cathepsin K enzyme solution (10 μL) were mixed and the increase of fluorescence intensity when reacted at 37° C. was measured (λex(excitation wavelength)355 nm, λem (fluorescence wavelength) 460 nm). As to the substrate and the compound of the present invention, enzyme reactions were carried out in combination of several appropriate concentrations, Dixon plotting was prepared, to define the absolute value of X-coordinate of the intersection point of the graph as Ki value.

cathepsin S = cathepsin S (Homo sapiens, UniProt P25774); experiment: Measurement of cathepsin S inhibitory activity
Protocol: (iii) Measurement of Cathepsin S Inhibitory Activity
Synthesized substrate of several concentrations (carbobenzoxy-L-leucyl-L-leucyl-L-arguinine-4-methyl-chroman yl-7-amide) solution (10 μL), cysteine protease inhibitor solution (5 μL) of several concentrations, cathepsin S enzyme reaction buffer (100 mmol/L sodium phosphate, 2 mmol/L EDTA, 2 mmol/L DTT were mixed to adjust to pH 6.5) (75 μL) and cathepsin S enzyme solution (10 μL) were mixed and the increase of fluorescence intensity was measured (λex=355 nm, λem=460 nm) when reacted at 37° C.

Sequence of cathepsin L (P07711 114-333, species assumed): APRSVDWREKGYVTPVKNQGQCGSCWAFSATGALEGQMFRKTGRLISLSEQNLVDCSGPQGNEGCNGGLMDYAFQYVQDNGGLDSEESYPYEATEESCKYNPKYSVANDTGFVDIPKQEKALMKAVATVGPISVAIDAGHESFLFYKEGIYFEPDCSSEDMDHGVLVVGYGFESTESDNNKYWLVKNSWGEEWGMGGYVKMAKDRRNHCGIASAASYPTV
Sequence of cathepsin S (P25774 115-331, species assumed): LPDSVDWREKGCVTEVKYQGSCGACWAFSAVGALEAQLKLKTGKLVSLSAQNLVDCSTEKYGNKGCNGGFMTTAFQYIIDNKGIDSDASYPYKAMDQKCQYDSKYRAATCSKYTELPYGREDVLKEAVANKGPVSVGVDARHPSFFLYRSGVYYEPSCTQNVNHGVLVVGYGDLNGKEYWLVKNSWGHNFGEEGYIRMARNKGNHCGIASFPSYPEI

inhibition at 1 µM (cathepsin B)	inhibition at 1 µM (cathepsin L)	Ki (cathepsin K)	inhibition at 1 µM (cathepsin S)	Structure (SMILES)
97%	100%	13 nM	99%	CC(C)C[C@H](NC(=O)OCc1ccccc1)C(=O)N[C@@H](CC(C)C)C(=O)c1n[nH]c(=O)o1 [Example 1 (1), (2S)-N-[(2S)-4-methyl-1-oxo-1-(2-oxo-1,3,4-oxadiazolin-5-yl)-2-pentyl]-4-methyl-2-(benzyloxycarbonylamino)pentanamide]
		86 nM		CC(C)C[C@H](NC(=O)[C@@H]1CCCC[C@@H]1NC(=O)c1ccccc1)C(=O)c1n[nH]c(=O)o1 [example 1]
